According to patent US10899793B2, “Melanocortin ligands and methods of use thereof” (priority 2016, dated 2021):
Square brackets hold non-standard residues; d marks the D form. Peptide text beside a SMILES is read from it. dPhe(4-I) = N[C@H](Cc1ccc(I)cc1)C(=O)O; d2Nal = N[C@H](Cc1ccc2ccccc2c1)C(=O)O; Bta = N[C@@H](Cc1csc2ccccc12)C(=O)O; Tic = O=C(O)[C@@H]1Cc2ccccc2CN1; Nle = CCCC[C@H](N)C(=O)O

What was measured:
mMC4R [1] = biological target: T1, mMC4R (Mus musculus, UniProt P56450); assay: AlphaScreen cAMP agonist assay at mMC4R; details: read-out: mMC4R Agonist, percent of the NDP-MSH maximal positive control
mMC3R [2] = biological target: T2, mMC3R (Mus musculus, UniProt P33033); assay: 125I-NDP-MSH competitive binding assay at mMC3R; parameters: expressed in transfected cells; details: for mMC3R (IC50) Fold Diff.: Table 3, vs Ac-His-DPhe-Arg-Trp-NH2, negative = more potent than control
Method: A typical experiment utilized a 12-well format. […] Pharm. Des.
The plates were incubated at 37° C. with 5% CO2 for 1 hour. Post incubation, the media was aspirated, each well was washed with 500 μL assay media, and cells were lysed with 500 μL of 0.1 M NaOH and 500 μL of 1% Triton x-100.
Following a 10-15 minute room temperature incubation, the cell lysate mixture was transferred to 12×75 mm polystyrene tubes and the radioactivity was quantified using a WIZARD^2 Automatic Gamma Counter (Perkin-Elmer). […] GraphPad, Inc), and dose-response curves in addition to the corresponding IC50 values were calculated by a non-linear regression method. Each reported value represents the mean and standard error of the mean (SEM) of, at least, two independent experiments each containing two experimental replicates.
Note each reported value represents the mean and standard error of the mean (SEM) of at least two independent experiments containing two experimental replicates.

mMC3R [3] = biological target: T2, mMC3R; details: Table 1; Schild analysis, pA2 = -Log(Ki); Full Agonist = full dose-response, No Activity = no shift in EC50
mMC4R [4] = biological target: T1, mMC4R; assay: 125I-NDP-MSH competitive binding assay at mMC4R; details: Table 3; vs Ac-His-DPhe-Arg-Trp-NH2; negative = more potent than control
mMC4R [5] = biological target: T1, mMC4R; parameters: expressed in transfected cells; details: Joseph et al. 2003; read-out: reported stimulation potency at the mMC4R; cited from earlier work
mMC3R [6] = biological target: T2, mMC3R; parameters: expressed in transfected cells; details: Joseph et al. 2003; read-out: reported stimulation potency at the mMC3R; cited from earlier work

T1 sequence (P56450 whole entry): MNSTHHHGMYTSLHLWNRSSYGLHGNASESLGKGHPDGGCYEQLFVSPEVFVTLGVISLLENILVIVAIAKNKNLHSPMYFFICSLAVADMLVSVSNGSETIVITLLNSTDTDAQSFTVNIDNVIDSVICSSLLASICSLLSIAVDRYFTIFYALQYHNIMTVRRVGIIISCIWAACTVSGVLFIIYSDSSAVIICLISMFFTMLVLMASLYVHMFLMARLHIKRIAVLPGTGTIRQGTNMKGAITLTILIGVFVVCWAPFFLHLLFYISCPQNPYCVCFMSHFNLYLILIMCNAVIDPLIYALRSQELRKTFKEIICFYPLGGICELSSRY
T2 sequence (P33033 whole entry): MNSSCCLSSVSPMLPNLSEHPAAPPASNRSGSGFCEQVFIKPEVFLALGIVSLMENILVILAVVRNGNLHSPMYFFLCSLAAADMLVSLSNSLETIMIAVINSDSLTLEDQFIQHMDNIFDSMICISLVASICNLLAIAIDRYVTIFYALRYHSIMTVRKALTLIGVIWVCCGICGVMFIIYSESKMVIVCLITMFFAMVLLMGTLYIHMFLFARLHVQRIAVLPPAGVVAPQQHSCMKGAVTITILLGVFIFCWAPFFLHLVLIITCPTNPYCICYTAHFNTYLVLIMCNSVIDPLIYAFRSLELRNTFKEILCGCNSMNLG

Row | activation at 100 µM (mMC4R [1]) | mMC3R (IC50) Fold Diff. (mMC3R [2]) | mMC3R Antagonist pA2 ± SEM (mMC3R [3]) | mMC4R (IC50) Fold Diff. (mMC4R [4]) | fold improvement of binding IC50 at the mMC3R compared to SKY4-48-1 (mMC3R [2]) | IC50 (mMC3R [2]) | Molecule | EC50 (mMC4R [5]) | EC50 (mMC3R [6])
1 | 24% | -52 | Full Agonist | 1 | – | – | CC(=O)N[C@@H](CCCNC(=N)N)C(=O)N[C@@H](CCCNC(=N)N)C(=O)N[C@H](Cc1ccc(I)cc1)C(=O)N[C@@H](Cc1csc2ccccc12)C(N)=O [SKY4-48-10, Ac-Arg-Arg-(pI)DPhe-3Bal-NH2] | – | –
2 | 47% | -15 | Full Agonist | 2 | – | – | CC(=O)N[C@@H](Cc1c[nH]cn1)C(=O)N[C@@H](CCCNC(=N)N)C(=O)N[C@H](Cc1ccc(I)cc1)C(=O)N[C@@H](Cc1csc2ccccc12)C(N)=O [SKY4-48-11, Ac-His-Arg-(pI)DPhe-3Bal-NH2] (Ac-HR[dPhe(4-I)][Bta]-NH2) | – | –
3 | – | -9 | Full Agonist | 7 | 9 fold | – | CC(=O)N[C@@H](Cc1ccccc1)C(=O)N[C@@H](CCCNC(=N)N)C(=O)N[C@H](Cc1ccc(I)cc1)C(=O)N[C@@H](Cc1csc2ccccc12)C(N)=O [SKY4-48-15, Ac-Phe-Arg-(pI)DPhe-3Bal-NH2] (Ac-FR[dPhe(4-I)][Bta]-NH2) | – | –
4 | – | -20 | Full Agonist | 1 | – | – | CC(=O)N[C@@H](Cc1ccccc1)C(=O)N[C@@H](CCCNC(=N)N)C(=O)N[C@H](Cc1ccc(I)cc1)C(=O)N1Cc2ccccc2C[C@H]1C(N)=O [SKY4-48-23, Ac-Phe-Arg-(pI)DPhe-Tic-NH2] (Ac-FR[dPhe(4-I)][Tic]-NH2) | – | –
5 | – | -8 | Full Agonist | 4 | – | – | CC(=O)N[C@@H](CCCNC(=N)N)C(=O)N[C@@H](CCCNC(=N)N)C(=O)N[C@H](Cc1ccc(I)cc1)C(=O)N[C@@H](Cc1ccccc1)C(N)=O [SKY4-48-26, Ac-Arg-Arg-(pI)DPhe-Phe-NH2] | – | –
6 | 32% | -120 | Full Agonist | -3 | 120 fold | 440 nM | CC(=O)N[C@H](Cc1ccc2ccccc2c1)C(=O)N[C@@H](CCCNC(=N)N)C(=O)N[C@H](Cc1ccc(I)cc1)C(=O)N1Cc2ccccc2C[C@H]1C(N)=O [SKY6-24-3, Ac-DNal(2′)-Arg-(pI)DPhe-Tic-NH2] (Ac-[d2Nal]R[dPhe(4-I)][Tic]-NH2) | – | –
7 | – | – | – | – | – | – | Ac-Ser-Tyr-Ser-Nle-Glu-His-Arg-Phe-Phe-Gly-Lys-Pro-Val-NH2 (Ac-SYS[Nle]EHRFFGKPV-NH2; SMILES CCCC[C@H](NC(=O)[C@H](CO)NC(=O)[C@H](Cc1ccc(O)cc1)NC(=O)[C@H](CO)NC(C)=O)C(=O)N[C@@H](CCC(=O)O)C(=O)N[C@@H](Cc1c[nH]cn1)C(=O)N[C@@H](CCCNC(=N)N)C(=O)N[C@@H](Cc1ccccc1)C(=O)N[C@@H](Cc1ccccc1)C(=O)NCC(=O)N[C@@H](CCCCN)C(=O)N1CCC[C@H]1C(=O)N[C@H](C(N)=O)C(C)C) [chimeric NDP-MSH/AGRP peptide] | 930 nM | 480 nM
